Measurements reported in paper PMC2248166, “Quantitative peptide binding motifs for 19 human and mouse MHC class I molecules derived using positional scanning combinatorial peptide libraries” (Immunome Research, 2008).

Columns and labels:
Type in all cases: binding
HLA B*0801 = HLA B*0801 (Homo sapiens, UniProt P01889, A93T/A95T/D138N/E176V/E187T/K202T/Q94N/R180D/S35A/V36M/Y33D/Y91F); test: biochemical
H-2 K^k = H-2 K^k (Mus musculus, UniProt P04223)
HLA B*5401 = HLA B*5401 (Homo sapiens, UniProt P01889, A329T/C349S/D138N/D201E/E176V/E187T/E204Q/E69G/I76V/K202T/L119W/R155S/R180L/S121T/S35A/S48A/V127L/V306I/V36M/Y140L)
H-2 D^d = H-2 D^d (Mus musculus, UniProt P01900)
HLA B*1501 = HLA B*1501 (Homo sapiens, UniProt P01889, A329T/A93T/A95T/C349S/D201E/D98Y/E187L/E204Q/E69M/E70A/K202T/N87E/Q94N/R155S/R180W/S121R/S35A/S48A/V306I/V36M/Y140S/Y91S); test: biochemical
HLA B*1503 = HLA B*1503 (Homo sapiens, UniProt P01889, A329T/A93T/A95T/C349S/D201E/D98Y/E187L/E204Q/K202T/N87E/Q94N/R155S/R180L/S121R/S35A/V306I/V36M/Y140S/Y91S); test: biochemical
HLA B*5301 = HLA B*5301 (Homo sapiens, UniProt P01889, A329T/A93T/A95T/C349S/D201E/D98Y/E176V/E187L/E204Q/E69T/G107R/I218V/K202T/L105A/L119I/N104I/Q94N/R106L/R155S/R180L/S101N/S121R/S35A/S48A/T118I/V127L/V306I/V36M/Y140S/Y91F)
HLA B*5801 = HLA B*5801 (Homo sapiens, UniProt P01889, A329T/C349S/D201E/D98Y/E176V/E187L/E204Q/E69T/G107R/I218V/I90N/K202T/L105A/L119I/N104I/N87E/Q89R/Q94S/R106L/R155S/R180L/R86G/S101N/S121R/S35A/S48A/T118I/V127L/V306I/V36M/Y140S/Y91M)
HLA A*3001 = HLA A*3001 (Homo sapiens, UniProt P04439, D140H/D185E/E176W/F33S/G80R/H175R/K168Q/R138E/R41S); test: biochemical
H-2 K^d = H-2 K^d (Mus musculus, UniProt P01902)
HLA B*5802 = HLA B*5802 (Homo sapiens, UniProt P01889, A329T/C349S/D201E/D98Y/E176V/E187L/E204Q/E69T/G107R/I218V/I90N/K202T/L105A/N104I/N87E/Q89R/Q94S/R106L/R155S/R180L/R86G/S101N/S121W/S35A/S48A/V127L/V306I/V36M/Y140S/Y91M)
H-2 D^b = H-2 D^b (Mus musculus, UniProt P01899)
HLA A*6802 = HLA A*6802 (Homo sapiens, UniProt P04439, A269V/D140Y/D185E/E176V/E277Q/E87N/F33Y/G231S/I121R/I166T/I218V/L180W/L300P/L318F/N151K/P208A/P217A/Q86R/R138H/R169H/S129P/T345S/V36M)
HLA B*3501 = HLA B*3501 (Homo sapiens, UniProt P01889, A329T/A93T/A95T/C349S/D201E/D98Y/E176V/E187L/E204Q/E69T/I218V/K202T/L119I/Q94N/R155S/R180L/S121R/S35A/S48A/T118I/V127L/V306I/V36M/Y140S/Y91F)
HLA A*3201 = HLA A*3201 (Homo sapiens, UniProt P04439, A270S/D101S/D185E/E176V/E277Q/F133L/G103R/G107R/G231S/H175R/I121M/I218V/I322F/K168Q/L105A/L300P/L318F/M331R/P208A/P217A/Q94H/R106L/R138Q/S129P/T104I/T323A/T345S/V100E/V321M/V358M); test: biochemical
HLA B*5101 = HLA B*5101 (Homo sapiens, UniProt P01889, A329T/A93T/A95T/C349S/D138N/D201E/D98Y/E187L/E204Q/E69T/G107R/I218V/K202T/L105A/L119W/N104I/Q94N/R106L/R155S/R180L/S101N/S121T/S35A/S48A/V306I/V36M/Y195H/Y91F)

Chain of H-2 D^d (P01900 whole entry, looked up): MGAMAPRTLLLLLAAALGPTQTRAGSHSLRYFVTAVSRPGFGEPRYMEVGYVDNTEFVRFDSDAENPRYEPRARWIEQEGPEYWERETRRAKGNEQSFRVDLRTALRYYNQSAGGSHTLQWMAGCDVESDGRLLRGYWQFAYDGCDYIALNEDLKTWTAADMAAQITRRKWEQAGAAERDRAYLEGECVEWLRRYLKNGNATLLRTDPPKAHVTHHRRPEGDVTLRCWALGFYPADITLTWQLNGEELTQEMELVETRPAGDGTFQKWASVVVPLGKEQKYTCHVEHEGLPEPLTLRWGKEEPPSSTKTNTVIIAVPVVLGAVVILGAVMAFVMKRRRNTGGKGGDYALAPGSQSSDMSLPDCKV
Chain of H-2 D^b (P01887 21-119): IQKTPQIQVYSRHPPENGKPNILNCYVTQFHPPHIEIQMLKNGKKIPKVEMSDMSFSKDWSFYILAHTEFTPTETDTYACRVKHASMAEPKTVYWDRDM
Chain of H-2 D^b (P01899 25-362): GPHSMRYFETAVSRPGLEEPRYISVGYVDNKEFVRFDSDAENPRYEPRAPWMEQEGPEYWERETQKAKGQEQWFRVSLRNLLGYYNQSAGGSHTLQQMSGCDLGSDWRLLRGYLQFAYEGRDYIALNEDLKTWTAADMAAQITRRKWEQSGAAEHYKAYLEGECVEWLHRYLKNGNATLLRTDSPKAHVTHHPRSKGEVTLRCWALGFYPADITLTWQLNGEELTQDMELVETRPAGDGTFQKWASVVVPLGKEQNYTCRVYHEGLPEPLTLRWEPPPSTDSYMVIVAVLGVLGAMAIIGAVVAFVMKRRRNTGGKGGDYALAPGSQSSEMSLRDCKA
Chain of H-2 K^d (P01887 21-119): as the sequence (P01887 21-119) above
Chain of H-2 K^d (P01902 22-368): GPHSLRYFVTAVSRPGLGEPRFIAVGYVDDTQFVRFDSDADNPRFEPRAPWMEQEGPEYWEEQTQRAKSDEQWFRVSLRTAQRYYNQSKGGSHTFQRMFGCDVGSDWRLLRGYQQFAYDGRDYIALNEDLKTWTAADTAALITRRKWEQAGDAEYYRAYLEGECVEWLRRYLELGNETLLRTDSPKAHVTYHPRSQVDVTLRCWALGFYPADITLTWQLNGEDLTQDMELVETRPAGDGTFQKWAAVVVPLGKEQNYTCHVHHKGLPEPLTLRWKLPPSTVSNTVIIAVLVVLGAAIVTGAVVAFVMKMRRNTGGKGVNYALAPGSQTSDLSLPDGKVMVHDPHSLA
Chain of H-2 K^k (P01887 21-119): as the sequence (P01887 21-119) above
Chain of H-2 K^k (P04223 22-369): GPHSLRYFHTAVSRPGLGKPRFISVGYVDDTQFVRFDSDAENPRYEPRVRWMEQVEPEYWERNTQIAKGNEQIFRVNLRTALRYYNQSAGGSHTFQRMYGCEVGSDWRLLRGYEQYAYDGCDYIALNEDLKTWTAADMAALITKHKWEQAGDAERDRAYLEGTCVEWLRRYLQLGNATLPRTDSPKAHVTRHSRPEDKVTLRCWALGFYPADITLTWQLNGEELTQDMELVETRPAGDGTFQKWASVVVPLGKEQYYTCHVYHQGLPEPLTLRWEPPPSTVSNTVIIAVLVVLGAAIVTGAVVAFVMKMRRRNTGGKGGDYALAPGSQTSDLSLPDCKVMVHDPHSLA

Sequence: XXXXXXFXX [3064.0125]
- Normalized average relative binding affinity(ARB) (HLA B*0801): 0.40
- Normalized average relative binding affinity(ARB) (H-2 K^k): 1.0
- Normalized average relative binding affinity(ARB) (HLA B*5401): 0.17
- Normalized average relative binding affinity(ARB) (H-2 D^d): 1.0
- Normalized average relative binding affinity(ARB) (HLA B*1501): 0.34
- Normalized average relative binding affinity(ARB) (HLA B*1503): 0.077
- Normalized average relative binding affinity(ARB) (HLA B*5301): 0.10
- Normalized average relative binding affinity(ARB) (HLA B*5801): 0.018
- Normalized average relative binding affinity(ARB) (HLA A*3001): 0.18
- Normalized average relative binding affinity(ARB) (H-2 K^d): 0.088
- Normalized average relative binding affinity(ARB) (HLA B*5802): 0.084
- Normalized average relative binding affinity(ARB) (H-2 D^b): 0.72
- Normalized average relative binding affinity(ARB) (HLA A*6802): 0.46
- Normalized average relative binding affinity(ARB) (HLA B*3501): 0.32
- Normalized average relative binding affinity(ARB) (HLA A*3201): 0.44
- Normalized average relative binding affinity(ARB) (HLA B*5101): 0.43

Sequence: XXXXXXGXX [3064.0126]
- Normalized average relative binding affinity(ARB) (HLA B*0801): 0.17
- Normalized average relative binding affinity(ARB) (H-2 K^k): 0.34
- Normalized average relative binding affinity(ARB) (HLA B*5401): 0.073
- Normalized average relative binding affinity(ARB) (H-2 D^d): 0.031
- Normalized average relative binding affinity(ARB) (HLA B*1501): 0.52
- Normalized average relative binding affinity(ARB) (HLA B*1503): 0.12
- Normalized average relative binding affinity(ARB) (HLA B*5301): 0.058
- Normalized average relative binding affinity(ARB) (HLA B*5801): 0.031
- Normalized average relative binding affinity(ARB) (HLA A*3001): 0.044
- Normalized average relative binding affinity(ARB) (H-2 K^d): 0.28
- Normalized average relative binding affinity(ARB) (HLA B*5802): 0.024
- Normalized average relative binding affinity(ARB) (H-2 D^b): 0.45
- Normalized average relative binding affinity(ARB) (HLA A*6802): 0.071
- Normalized average relative binding affinity(ARB) (HLA B*3501): 0.12
- Normalized average relative binding affinity(ARB) (HLA A*3201): 0.051
- Normalized average relative binding affinity(ARB) (HLA B*5101): 0.33

Sequence: XXXXXXHXX [3064.0127]
- Normalized average relative binding affinity(ARB) (HLA B*0801): 1.0
- Normalized average relative binding affinity(ARB) (H-2 K^k): 0.26
- Normalized average relative binding affinity(ARB) (HLA B*5401): 0.27
- Normalized average relative binding affinity(ARB) (H-2 D^d): 0.075
- Normalized average relative binding affinity(ARB) (HLA B*1501): 0.33
- Normalized average relative binding affinity(ARB) (HLA B*1503): 0.18
- Normalized average relative binding affinity(ARB) (HLA B*5301): 0.070
- Normalized average relative binding affinity(ARB) (HLA B*5801): 0.18
- Normalized average relative binding affinity(ARB) (HLA A*3001): 0.082
- Normalized average relative binding affinity(ARB) (H-2 K^d): 0.33
- Normalized average relative binding affinity(ARB) (HLA B*5802): 0.089
- Normalized average relative binding affinity(ARB) (H-2 D^b): 0.062
- Normalized average relative binding affinity(ARB) (HLA A*6802): 0.49
- Normalized average relative binding affinity(ARB) (HLA B*3501): 0.15
- Normalized average relative binding affinity(ARB) (HLA A*3201): 0.33
- Normalized average relative binding affinity(ARB) (HLA B*5101): 0.27

Sequence: XXXXXXIXX [3064.0128]
- Normalized average relative binding affinity(ARB) (HLA B*0801): 0.030
- Normalized average relative binding affinity(ARB) (H-2 K^k): 0.037
- Normalized average relative binding affinity(ARB) (HLA B*5401): 0.15
- Normalized average relative binding affinity(ARB) (H-2 D^d): 0.048
- Normalized average relative binding affinity(ARB) (HLA B*1501): 0.40
- Normalized average relative binding affinity(ARB) (HLA B*1503): 0.29
- Normalized average relative binding affinity(ARB) (HLA B*5301): 0.10
- Normalized average relative binding affinity(ARB) (HLA B*5801): 0.65
- Normalized average relative binding affinity(ARB) (HLA A*3001): 0.16
- Normalized average relative binding affinity(ARB) (H-2 K^d): 0.045
- Normalized average relative binding affinity(ARB) (HLA B*5802): 0.058
- Normalized average relative binding affinity(ARB) (H-2 D^b): 0.33
- Normalized average relative binding affinity(ARB) (HLA A*6802): 0.55
- Normalized average relative binding affinity(ARB) (HLA B*3501): 0.48
- Normalized average relative binding affinity(ARB) (HLA A*3201): 0.094
- Normalized average relative binding affinity(ARB) (HLA B*5101): 0.59
